Test results as given in patent US10428048B2, “Androgen receptor antagonists” (CITY OF HOPE, priority 2015, dated 2019).
“Also recorded” adds a separate entry of the source. Counter-ions that a name gives are not always drawn. Like-named read-outs stand apart in the source and are kept apart here.

Assays:
[1] = system: LNCaP cells; experiment: LNCaP prostate cancer cell growth (DAPI staining); assay type: cell-based, human; settings: for Inhibition of LNCaP cell growth in culture: AR-dependent LNCaP cells; for inhibition at 0.3 µM: Homo sapiens, LNCaP, read-out: LNCaP growth inhibition at 300 nM
Protocol: (§1) For growth curves, cells were transferred to charcoal-stripped media three days before they were split and plated at a density of approximately 20,000 cells/well in 48 well plates, in quadruplicate. The assay was repeated three times. The following day, medium with the indicated drugs was added to the cells. Proliferation was determined by measuring the DNA content of the cells in each well. Each day, the cells were fixed in 100% cold methanol, followed by staining for 5 min at RT with 0.2 ng/mL 4′,6-diamidino-2-phenylindole (DAPI) in PBS. The cells were washed with PBS, then read on a fluorescence plate reader (FPR) using 365/439 excitation/emission wavelengths. A student's T test was used to determine significant differences among populations.

[2] = Toxicity studies, MTD determination; settings: in vivo
Protocol: In DMSO/PBS formulation, with MTD single dose: IV: ˜1 mg/kg; PO (oral): not determined due to poor absorption; and IP: ˜5 mg/kg. With MTD daily dosing: IP: ˜1 mg/kg. In Beta cyclodextrin formulation: MTD single dose: IV: not determined; PO (oral); ˜200 mg/kg; IP: >10 mg/kg. In MTD daily dosing: IP: at least 5 mg/kg; PO: at least 100 mg/kg.

[3] = system: other nuclear receptors; experiment: Specificity for AR versus other nuclear receptors; assay type: cell-based; settings: P24 0.1, 0.3, 1 μM; P7 0.3, 1, 3 μM
[4] = system: 22Rv1 cells; experiment: 22Rv1 cell growth in culture; assay type: cell-based, human; settings: androgen-independent, AR splice variant expressing 22Rv1 cells; tosylate
Protocol: as §1

[5] = system: enzalutamide (enz)-resistant LNCaP cells; experiment: Enzalutamide-resistant LNCaP cell growth in culture; assay type: cell-based, human
[6] = Solubility in solvents and formulations
[7] = Further PK studies, single dose, DMSO/PBS or BCD formulation; settings: blood at 0.5, 2 and 24-hrs; for Drug level in blood after administration, BCD formulation: 25 mg/kg single dose; for Drug level in blood after administration, DMSO/PBS formulation: 1 mg/kg single dose
From the text: Treatment: 1-2 mice with single dose and blood at 0.5, 2 and 24-hrs.

[8] = system: AR target genes; experiment: Inhibition of AR activity in vivo (qRT-PCR of prostate tissue); design: species or system Mice; settings: 5 mg/kg via osmotic pump for 4 weeks
Protocol: Total RNA was isolated from homogenized prostate or tumor tissue using an RNAeasy kit (Qiagen). RNA was reverse-transcribed (MMLV-RT; Invitrogen), and the expression of androgen-regulated genes was assessed by qPCR using a StepOne Real Time PCR System (Applied Biosystems), using SYBR green (Invitrogen) as the detecting dye and Rox (Invitrogen) as the reference dye. Differences between treated (x) and no DHT control (y) samples were normalized to RPL19 transcript levels (i.e., androgen-unresponsive) and determined with the following calculation: (2[Ctxgene1−Ctygene1])/(2[CtxRPL19−CtyRPL19]).

[9] = P24 microsomal analysis, human microsomes; assay type: in vitro ADME
Protocol: (§2) FIG. 16. P24 microsomal analysis.
(§3) As depicted in FIG. 16, the concentration of compound. P24 solution tested with incubation with microsomes.

[10] = P24 microsomal analysis, mouse microsomes; assay type: in vitro ADME
Protocol: as §2, §3

[11] = ip, Beta cyclodextrin formulation, IP, daily dosing, read-out: MTD daily dosing IP
[12] = ip, Beta cyclodextrin formulation, IP, single dose, read-out: MTD single dose IP
[13] = ip, DMSO/PBS formulation, IP, daily dosing, read-out: MTD daily dosing IP
[14] = ip, DMSO/PBS formulation, IP, single dose, read-out: MTD single dose IP
[15] = iv, DMSO/PBS formulation, IV, single dose, read-out: MTD single dose IV
[16] = po, Beta cyclodextrin formulation, PO, daily dosing, read-out: MTD daily dosing PO
[17] = po, Beta cyclodextrin formulation, PO, single dose, read-out: MTD single dose PO (oral)
[18] = 100 ng/ml P24, absence of NADPH
[19] = 100 ng/ml P24, presence of NADPH

Structure (SMILES)	Inhibition of LNCaP cell growth in culture ([1]; tosylate)	inhibition at 0.3 µM [1]	MTD [2, 11]	MTD [2, 12]	MTD [2, 13]	MTD [2, 14]	MTD [2, 15]	MTD [2, 16]	MTD [2, 17]	Activity against other nuclear receptors [3]	Inhibition of 22Rv1 cell growth in culture [4]	Inhibition of growth of enzalutamide-resistant LNCaP cells [5]	Drug level in blood after administration, BCD formulation [7]	Drug level in blood after administration, DMSO/PBS formulation [7]	further results
Cc1cc(/C=C/c2ccc3cc(N(C)C)ccc3[n+]2C)c(C)[nH]1.Cc1ccc(S(=O)(=O)[O-])cc1 [P7, (E)-6-Dimethylamino-2-(2-(2,5-dimethyl-1H-pyrrol-3-yl)ethenyl)-1-methylquinolinium tosylate]	inhibit the growth; also recorded: inhibited	100%	≥ 5 mg/kg	> 10 mg/kg	~1 mg/kg	~5 mg/kg	~1 mg/kg	≥ 100 mg/kg	~200 mg/kg	little activity	inhibit the growth; also recorded: inhibited	inhibit the growth	more continuous peak	almost no drug	solubility ([6]; DMSO, organic solvent or mixture): ~10000 µg/mL; solubility ([6]; acetonitrile, organic solvent or mixture): < 5000 µg/mL; solubility ([6]; beta cyclodextrin, aqueous with cosolvent or surfactant or cyclodextrin): ~5000 µg/mL; solubility ([6]; buffer B (aqueous), aqueous buffer): < 5000 µg/mL; solubility ([6]; ethanol, organic solvent or mixture): ~5000 µg/mL; solubility ([6]; gamma cyclodextrin, aqueous with cosolvent or surfactant or cyclodextrin): ~5000 µg/mL
Cc1cccnc1-n1c(C)cc(/C=C/c2ccc3cc(N(C)C)ccc3[n+]2C)c1C [P24, (E)-6-Dimethylamino-2-(2-(2,5-dimethyl-1-(3-methylpyridin-2-yl)-1H-pyrrol-3-yl)ethenyl)-1-methylquinolinium tosylate]	inhibit the growth; also recorded: inhibited	100%	≥ 5 mg/kg	> 10 mg/kg	~1 mg/kg	~5 mg/kg	~1 mg/kg	≥ 100 mg/kg	~200 mg/kg	little activity	inhibit the growth; also recorded: inhibited	inhibit the growth	significant spike	almost no drug	Inhibition of AR target genes in prostate tissue (qRT-PCR) [8]: inhibition of AR target genes; Breakdown in microsomes without NADPH (chemical stability) [9, 18]: lack of breakdown; Metabolism in microsomes, NADPH dependence [9, 19]: NADPH dependent; Breakdown in microsomes without NADPH (chemical stability) [10, 18]: lack of breakdown; Metabolism in microsomes, NADPH dependence [10, 19]: NADPH dependent
CNC(=O)c1ccc(N2C(=S)N(c3ccc(C#N)c(C(F)(F)F)c3)C(=O)C2(C)C)cc1F [enzalutamide, reference compound]	–	–	–	–	–	–	–	–	–	–	–	–	–	–	Inhibition of LNCaP cell growth in culture [1]: inhibited
